Results reported in patent US20090076067A1, “PHARMACEUTICAL COMPOSITION COMPRISING AZARHODACYANINE COMPOUND AS ACTIVE INGREDIENT” (priority 2005, published 2009).
Read-outs that look alike come from different tables or passages of the source.

Key:
Type in all cases: cell-based
[1] = test system: Trypanosoma brucei rhodensiense (STIB 900 strain); assay: African trypanosoma protozoa proliferation inhibition screening test; details: for Selective toxicity: EC50 rat L6 cells / EC50 African trypanosoma protozoa; for EC50: Trypanosoma brucei, STIB900, read-out: EC50 Trypanosoma brucei rhod.; for EC50 / EC50 Trypanosoma brucei rhod.: STIB 900 bloodstream form, 72 hours, Alamar blue
Experimental: In this experiment, bloodstream form trypomastigote of Trypanosoma brucei rhodensiense (STIB 900 strain) was used. The medium used in the experiment was prepared as follows: to filter-sterilized MEM medium, 25 mM N-2-hydroxyethylpiperazine-2-ethane sulfonate (HEPES), 1 g/L glucose, 1% MEM nonessential amino acid, 0.2 mM 2-mercaptoethanol, 2 mM pyruvic calcium salt, 0.1 mM hypoxanthine, and 15% heat-treated horse serum were added. The protozoa was cultured under atmosphere of CO2 concentration 5% and temperature 37° C.
Either the compound of the invention or a positive control (melarsoprol) was dissolved into dimethylsulfoxide (DMSO) to prepare test solution having predefined concentration. To each well in a 96-well culture plate, medium containing 8×10^3 protozoa, and either test solution containing the test compound at predefined concentration or DMSO without compound was added. Then medium was added to achieve 100 μL. The test solution was duplicated.
The culture plate was cultured in an incubator for 72 hours, and the proliferation inhibition activity was examined. The activity was determined as follows. To each well, 10 μL Alamar blue water solution was added, then the plate was again cultured for 2 hours. Then the culture plate was mounted on a fluorescence microplate reader (Spectramax Gemeni XS; Molecular Devices Corporation, U.S.), and irradiated with 536 nm excitation wavelength to determine fluorescence at 588 nm. The trypanosoma infection rate of the sample containing the test composition and that of the control sample was calculated.
Using the protozoa infection rate thus obtained, the proliferation inhibition rate was calculated according to the following equation to determine 50% proliferation inhibition concentration (EC50).
Proliferation inhibition rate(%)={1−(b−a)/(c−a)}×100
a: initial infection rate b: infection rate of the test compound solution c: infection rate of the control

[2] = Rat L6 cell proliferation inhibition test; details: read-out: EC50 cytotoxicity L6; for EC50 at 72 h: L6 cells (rat skeletal myoblasts), Table 1, Alamar Blue
[3] = test system: Plasmodium Falciparum k1 strain; assay: Chloroquine-resistant tropical malaria protozoa proliferation inhibition screening test; details: for Selective toxicity: EC50 rat L6 cells / EC50 Chloroquine-resistant malaria protozoa; for EC50: Plasmodium falciparum
Summary of the method: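 Infected erythrocytes (0.15% initial infection, 2.5% hematocrit) in RPMI-1640 with 5% human serum were cultured 48 h at 37 °C under 3% O2/4% CO2 with compound, then 24 h with 0.5 μCi [3H]hypoxanthine.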

[4] = chloroquine-resistant K1 strain, 3H-hypoxanthine uptake, read-out: EC50 P. falciparum K1
[5] = chloroquine-resistant K1 strain, 3H-hypoxanthine uptake

Structure (SMILES)	Selective toxicity [1]	EC50 [1]	EC50 at 72 h [2]	Selective toxicity [3]	EC50 [3, 4]	EC50 Trypanosoma brucei rhod. [1]	EC50 P. falciparum K1 [3, 5]	EC50 ([2]; Table 1, rat L6 cells, 72 hours, Alamar Blue)	EC50 ([3]; K1, read-out: EC50 P. falciparum K1)
CCN1C(=O)/C(=C2\Sc3ccccc3N2C)S/C1=N\c1sc2cc(Cl)ccc2[n+]1C [Compound A-1]	94	0.403 µg/mL	37.9 µg/mL	255	0.148 µg/mL				
CCN1C(=O)/C(=C2\C=Cc3ccccc3N2C)S/C1=N\c1sc2cc(Cl)ccc2[n+]1C [Compound A-2]	72	0.076 µg/mL	5.5 µg/mL	2500	0.0022 µg/mL				
CCN1C(=O)/C(=c2/s/c(=C3/C=CC=CN3C)c(=O)n2CC)S/C1=N\c1sc2cc(Cl)ccc2[n+]1C [Compound B-2]	258	0.104 µg/mL	27 µg/mL	4495	0.006 µg/mL				
CCN1C(=O)/C(=c2/s/c(=C3/SCCN3C)c(=O)n2CC)S/C1=N\c1sc2cc(Cl)ccc2[n+]1C [Compound B-12]	50	0.138 µg/mL	6.9 µg/mL	507	0.0136 µg/mL				
CCN1C(=O)/C(=c2/s/c(=C3/C=CC=CN3C)c(=O)n2CC)S/C1=N\c1sc2cc(OC)ccc2[n+]1C [Compound B-28]						0.042 µg/mL	0.007 µg/mL		
CCN1C(=O)/C(=c2/s/c(=C3/SCCN3C)c(=O)n2CC)S/C1=N\c1sc2cc(OC)ccc2[n+]1C [Compound B-29]						0.023 µg/mL	0.006 µg/mL		
CCN1C(=O)/C(=c2/s/c(=C3/C=CC=CN3C)c(=O)n2CC)S/C1=N\c1sc2ccccc2[n+]1C [Compound B-30]						0.0625 µg/mL	0.0119 µg/mL		
CCN1C(=O)/C(=c2/s/c(=C3/SCCN3C)c(=O)n2CC)S/C1=N\c1sc2cc(F)ccc2[n+]1C [Compound B-33]						0.1485 µg/mL	0.0167 µg/mL		
CCn1c(=O)/c(=C2\SCCN2C)s/c1=C1\S/C(=N\c2sc3cc(Cl)ccc3[n+]2C)N(C(C)C)C1=O [Compound B-37]	19	0.052 µg/mL	1.44 µg/mL	160	0.009 µg/mL				
CN1/C(=c2\s/c(=C\c3cccc[n+]3CCC(=O)O)n(CC3CO3)c2=O)Sc2ccccc21 (centres unmarked) [Compound S-3, reference compound]	>15	6.1 µg/mL		>320				> 90 µg/mL	0.28 µg/mL
